From PubChem BioAssay AID2060360 (Molecular Pharmacology Branch, DTP, NCI, 2025)
Where “and” joins values, the source holds several entries; their conditions need not be identical. Identical values can stand only once.

Tested on: 282377-053-R-J1-PDC tumor spheroids, viability
Assay: Anticancer human tumor 282377-053-R-J1-PDC patient-derived colon adenocarcinoma cell line growth inhibition [TAK]
Settings: spheroids with HUVEC and MSC; for viability, T/C: stronger effect = lower value; active = viability on the fitted dose curve at most 10% of control; inactive = the rest
Excerpt: Combinatorial screen of targeted agents with TAK-243 and ipatasertib in multi-cell type tumor spheroids
A high-throughput screen of multi-cell type tumor spheroids was designed to identify active combinations of targeted small molecules and TAK-243 or ipatasertib. Complex spheroids include a stromal component modeled by human endothelial cells (HUVEC) and fibroblasts modeled by human mesenchymal stem cells (MSCs). The concentration ranges selected for each drug and investigational agent were based upon clinically achievable concentrations if the clinical Cmax of the agent was known.
Compounds. The drugs and investigational agents: TAK-243 (785004), ipatasertib (767898), everolimus (733504), selumetinib (741078), bortezomib (756655), trametinib (758246), ixazomib (758254), vemurafenib (761431), dabrafenib (764134), sapanisertib (764658), alpelisib (765974), and copanlisib (816437), were obtained from the National Cancer Institute (NCI) Developmental Therapeutics Program Chemical Repository. The FDA-approved anticancer drug set is available from the NCI Developmental Therapeutics Program. […] The stock solutions were prepared in dimethyl sulfoxide (DMSO, Sigma-Aldrich, St. Louis, MO, cat. D2650) at 800-fold the tested concentration and stored at -70 degrees C prior to their use. All drugs and investigational agents were tested over a range starting from a high concentration at or near the clinical Cmax and decreasing in half-log increments. If the clinical Cmax for an agent had not been determined, the highest concentration tested was 10 microM.
NCI60 Cell Culture. NCI60 cell lines were obtained from the NCI Developmental Therapeutics Program Tumor Repository. For each lot of cells, the Repository performed Applied Biosystems AmpFLSTR Identifiler testing with PCR amplification to confirm consistency with the published Identifier STR profile for each cell line. Cells were kept in continuous culture for no more than 20 passages. The optimal seeding densities for each of the cell lines at each time point assessed were determined prior to performing the concentration response studies. Briefly, the NCI60 human tumor lines were grown as monolayers in RPMI 1640 medium supplemented with 10% FBS and 2 mmol/L L-glutamine.
An additional 2 lines were from the NCI60 cell line panel including melanomas, MALME-3M and SK-MEL-2. Pooled donor human umbilical vein endothelial cells (HUVEC, Lonza, cat. CC-2519) and human mesenchymal stem cells (hMSC, Lonza, cat. PT-2501) were purchased from Lonza (Walkersville, MD).
PDMR cell lines were grown in complete medium (DC medium): Dulbecco's modified Eagle's medium (DMEM)/F12 supplemented with 5% fetal bovine serum (FBS), 2 mM L-glutamine, 100 U/mL penicillin and 100 µg/ml streptomycin, 0.4 µg/ml hydrocortisone, 10 ng/ml epidermal growth factor (EGF) recombinant human protein, 24 µg/mL adenine, and 0.1 mg/mL primocin. During culture from frozen stock vials, PDMR cells were cultured in the same medium containing 10 µM Y-27632 (see Table 3). The PDCs were cultured in complete DMEM/F12 media without 10 microM Y-27632 dihydrochloride for at least two passages prior to the screen. The pooled donor HUVEC and hMSC were cultured in endothelial cell growth medium 2 (PromoCell, Heidelberg, Germany, cat. C-22011) and mesenchymal stem cell growth medium 2 (PromoCell, cat. C-28009), respectively. For all experiments, HUVEC and hMSC were used at passages </=5.
For the pre-screen, cell seeding densities were determined from a titration spanning the range from 5,000 to 313 cells per well. The mct-spheroids including 60% malignant cells, 25% HUVEC and 15% MSC dispensed as a mixture into U-bottom Ultra-Low Attachment 384-well plates (Corning, NY)
High-throughput Drug Combination Screening.
Prior to their inoculation into 384-well plates, malignant cells, HUVEC, and hMSC were removed from T flasks using TrypLE express (Thermo Fisher Scientific, cat. 12605036) and harvested by centrifugation for 5 min at 233 x g. […]

[1] = curve of first compound, second compound 0.3 µM
[2] = curve of first compound, second compound 0.949 µM
[3] = curve of first compound, second compound 3 µM
[4] = curve of first compound, second compound 9.49 µM
[5] = curve of first compound, second compound 30 µM
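Also: spheroids exposed to drugs for seven days before readout.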

CC(C)CC(NC(=O)CNC(=O)c1cc(Cl)ccc1Cl)B1OC(=O)CC(CC(=O)O)(C(=O)O)O1 (configuration not stated) + CC(C)NCC(C(=O)N1CCN(c2ncnc3c2C(C)CC3O)CC1)c1ccc(Cl)cc1
active: viability, T/C (second compound 0.3 µM, first compound 0.1 µM) 3.57% | viability, T/C (second compound 0.949 µM, first compound 0.1 µM) 1.73% | viability, T/C (second compound 3 µM, first compound 0.1 µM) 1.39% | viability, T/C (second compound 9.49 µM, first compound 0.1 µM) 1.53% | viability, T/C (second compound 30 µM, first compound 0.1 µM) 0.99%
43.8 nM: IC50 [3]
53.8 nM: IC50 [1]
47.9 nM: IC50 [2]
39.3 nM: IC50 [4]
36.3 nM: IC50 [5]
inactive: viability, T/C (second compound 0.3 µM, first compound 0.000316 µM) 99.5% | viability, T/C (second compound 0.3 µM, first compound 0.001 µM) 93.9% | viability, T/C (second compound 0.3 µM, first compound 0.00316 µM) 94.3% | viability, T/C (second compound 0.3 µM, first compound 0.01 µM) 92.7% | viability, T/C (second compound 0.3 µM, first compound 0.0316 µM) 89.7% | viability, T/C (second compound 0.949 µM, first compound 0.000316 µM) 100% | viability, T/C (second compound 0.949 µM, first compound 0.001 µM) 88.3% | viability, T/C (second compound 0.949 µM, first compound 0.00316 µM) 87.1% | viability, T/C (second compound 0.949 µM, first compound 0.01 µM) 94.5% | viability, T/C (second compound 0.949 µM, first compound 0.0316 µM) 77.1% | viability, T/C (second compound 3 µM, first compound 0.000316 µM) 82.4% | viability, T/C (second compound 3 µM, first compound 0.001 µM) 87.8% | viability, T/C (second compound 3 µM, first compound 0.00316 µM) 84.2% | viability, T/C (second compound 3 µM, first compound 0.01 µM) 84.5% | viability, T/C (second compound 3 µM, first compound 0.0316 µM) 69.2% | viability, T/C (second compound 9.49 µM, first compound 0.000316 µM) 81.3% | viability, T/C (second compound 9.49 µM, first compound 0.001 µM) 79.3% | viability, T/C (second compound 9.49 µM, first compound 0.00316 µM) 81.7% | viability, T/C (second compound 9.49 µM, first compound 0.01 µM) 77.5% | viability, T/C (second compound 9.49 µM, first compound 0.0316 µM) 61.5% | viability, T/C (second compound 30 µM, first compound 0.000316 µM) 70.2% | viability, T/C (second compound 30 µM, first compound 0.001 µM) 74.6% | viability, T/C (second compound 30 µM, first compound 0.00316 µM) 67.7% | viability, T/C (second compound 30 µM, first compound 0.01 µM) 66.8% | viability, T/C (second compound 30 µM, first compound 0.0316 µM) 57.3%

CC(C)CC(NC(=O)CNC(=O)c1cc(Cl)ccc1Cl)B1OC(=O)CC(CC(=O)O)(C(=O)O)O1 (configuration not stated)
active: viability, T/C (compound 0.1 µM) 5.66% and 8.2%
55.8 nM and 57.5 nM: IC50 (curve of compound)
inactive: viability, T/C (compound 0.000316 µM) 97.6% and 92.8% | viability, T/C (compound 0.001 µM) 95.9% and 104% | viability, T/C (compound 0.00316 µM) 101% and 95.3% | viability, T/C (compound 0.01 µM) 97.9% and 101% | viability, T/C (compound 0.0316 µM) 93.3% and 95%

CCCS(=O)(=O)Nc1ccc(F)c(C(=O)c2c[nH]c3ncc(-c4ccc(Cl)cc4)cc23)c1F + CC(C)NCC(C(=O)N1CCN(c2ncnc3c2C(C)CC3O)CC1)c1ccc(Cl)cc1
7810 nM: IC50 [1]
inactive: viability, T/C (second compound 0.3 µM, first compound 0.316 µM) 79.5% | viability, T/C (second compound 0.3 µM, first compound 1 µM) 79.8% | viability, T/C (second compound 0.3 µM, first compound 3.16 µM) 82.6% | viability, T/C (second compound 0.3 µM, first compound 10 µM) 24.6% | viability, T/C (second compound 0.3 µM, first compound 31.6 µM) 1.89% | viability, T/C (second compound 0.3 µM, first compound 100 µM) 98.5% | viability, T/C (second compound 0.949 µM, first compound 0.316 µM) 76.7% | viability, T/C (second compound 0.949 µM, first compound 1 µM) 79.9% | viability, T/C (second compound 0.949 µM, first compound 3.16 µM) 84.2% | viability, T/C (second compound 0.949 µM, first compound 10 µM) 7.58% | viability, T/C (second compound 0.949 µM, first compound 31.6 µM) 2.94% | viability, T/C (second compound 0.949 µM, first compound 100 µM) 95.3% | viability, T/C (second compound 3 µM, first compound 0.316 µM) 76.8% | viability, T/C (second compound 3 µM, first compound 1 µM) 73.7% | viability, T/C (second compound 3 µM, first compound 3.16 µM) 80.5% | viability, T/C (second compound 3 µM, first compound 10 µM) 33.4% | viability, T/C (second compound 3 µM, first compound 31.6 µM) 1.38% | viability, T/C (second compound 3 µM, first compound 100 µM) 89.3% | viability, T/C (second compound 9.49 µM, first compound 0.316 µM) 72.4% | viability, T/C (second compound 9.49 µM, first compound 1 µM) 70.1% | viability, T/C (second compound 9.49 µM, first compound 3.16 µM) 71.3% | viability, T/C (second compound 9.49 µM, first compound 10 µM) 10.9% | viability, T/C (second compound 9.49 µM, first compound 31.6 µM) 10.1% | viability, T/C (second compound 9.49 µM, first compound 100 µM) 76.7% | viability, T/C (second compound 30 µM, first compound 0.316 µM) 57.4% | viability, T/C (second compound 30 µM, first compound 1 µM) 61% | viability, T/C (second compound 30 µM, first compound 3.16 µM) 49.5% | viability, T/C (second compound 30 µM, first compound 10 µM) 9.48% | viability, T/C (second compound 30 µM, first compound 31.6 µM) 0.93% | viability, T/C (second compound 30 µM, first compound 100 µM) 46.8%
6860 nM: IC50 [2]
2990 nM: IC50 [5]
5950 nM: IC50 [4]
7560 nM: IC50 [3]
